In patent US20120083013A1, “GLUCOSYLTRANSFERASE SPECIFIC TO POSITION-4 OF FUROFURAN-TYPE LIGNAN, AND POLYNUCLEOTIDE ENCODING SAME” (Suntory Holdings Limited, priority 2009, published 2012):

Legend:
RengUGT14 = test: glycosyl acceptor selectivity of recombinant RengUGT14 (standard enzyme reaction, HPLC analysis); format: biochemical, Forsythia koreana; conditions: 1 mM UDP-glucose, 100 μM glycosyl acceptor substrate, pH 7.5, 30° C., one hour; for transglycosylation activity (activity against the lignan of structural formula (Ia) made 100): relative activity as glycosyl acceptor substrate
Protocol: To clarify the biochemical functions of the enzymes, the two enzymes were expressed in Escherichia coli. Using the plasmid for two RengUGT Escherichia coli expression obtained above, Escherichia coli BL21 (DE3) strain was transformed in a conventional manner. The resulting transformants were shake cultured in 4 ml of LB medium (10 g/l tryptone peptone, 5 g/l yeast extract, 1 g/l NaCl) containing 50 μg/ml of ampicillin at 37° C. overnight. When the cells reached the stationary phase, 4 ml of the culture broth was inoculated onto 80 ml of fresh medium of the same composition, followed by shake culture at 37° C. At the point when the cell turbidity (OD 600) reached approximately 0.5, IPTG in a final concentration of 0.5 mM was added to the cells, followed by shake culture at 18° C. for 20 hours. The following procedures were all carried out at 4° C. The transformants cultured were collected by centrifugation (5,000×g, 10 mins.) and suspended by adding 1 ml/g cell of Buffer S (20 mM HEPES buffer (pH 7.5), 20 mM imidazole and 14 mM […]. Subsequently, the suspension was ultrasonicated (15 secs×8 times) and then centrifuged (15,000×g, 15 mins.). The supernatant obtained was recovered as a crude enzyme solution. The crude enzyme solution was loaded onto His SpinTrap (GE Healthcare), which had been equilibrated with Buffer S, and centrifuged (70×g, 30 secs.). After washing with the buffer, the proteins bound to the column were eluted stepwise with 5 ml each of Buffer S containing 100 mM and 500 mM imidazole. In each of the eluted fractions, the buffer was replaced through a Microcon YM-30 (Amicon) by 20 mM HEPES buffer (pH 7.5)/14 mM β-mercapto ethanol (magnification of dialysis, ×1000). As a result of the SDS-PAGE analysis, in the fraction eluted with […], the protein was confirmed at approximately 50 KDa of the estimated molecular weight for the two RengUGTs. This fraction was used for the enzyme analysis (FIG. 2). Conditions for the standard enzyme reaction are as follows. […] Based on the analysis that the spectra from 220 nm to 330 nm were measured using SPD-10AV (Shimadzu Corp.), search was made for substances having two absorption maxima (230 nm and 280 nm) inherent to lignans. Under the conditions, the lignan of structural formula (Ia) was detected at approximately 11.6 minutes, the lignan of structural formula (Ib) at approximately 12.2 minutes, the lignan of structural formula (Ic) at approximately 13.8 minutes, and the lignan of structural formula (V) at approximately 9.8 minutes. The expression level of RengUGT14 recombinant protein was high in Escherichia coli (FIG. 2), and the glycosyl acceptor selectivity was evaluated using this enzyme. […]

RengUGT13 = test: glucosyltransferase reaction of recombinant RengUGT13 with lignan (HPLC, LC-MS of the product); format: biochemical, Forsythia koreana; conditions: 1 mM UDP-glucose, 100 μM glycosyl acceptor substrate, pH 7.5, 30° C., one hour
Protocol: To clarify the biochemical functions of the enzymes, the two enzymes were expressed in Escherichia coli. Using the plasmid for two RengUGT Escherichia coli expression obtained above, Escherichia coli BL21 (DE3) strain was transformed in a conventional manner. The resulting transformants were shake cultured in 4 ml of LB medium (10 g/l tryptone peptone, 5 g/l yeast extract, 1 g/l NaCl) containing 50 μg/ml of ampicillin at 37° C. overnight. When the cells reached the stationary phase, 4 ml of the culture broth was inoculated onto 80 ml of fresh medium of the same composition, followed by shake culture at 37° C. […]
Lc-2010c (Shimadzu Corp.) was used for LC; eluent A: 0.1% TFA and eluent B: 0.1% TFA/90% acetonitrile as the moving phase; Develosil-C30-UG5 (Nomura Chemical, 4.6 mm×150 mm) as the column at 40° C. […] Based on the analysis that the spectra from 220 nm to 330 nm were measured using SPD-10AV (Shimadzu Corp.), search was made for substances having two absorption maxima (230 nm and 280 nm) inherent to lignans. Under the conditions, the lignan of structural formula (Ia) was detected at approximately 11.6 minutes, the lignan of structural formula (Ib) at approximately 12.2 minutes, the lignan of structural formula (Ic) at approximately 13.8 minutes, and the lignan of structural formula (V) at approximately 9.8 minutes. […]

transglycosylation activity (activity against the lignan of structural formula (Ia) made 100) (RengUGT14)	SMILES	glucose transfer to the lignan by RengUGT14 (product peak at HPLC, monoglucoside by LC-MS) (RengUGT14)	glucose transfer to the lignan by RengUGT13 (product peak at HPLC, monoglucoside by LC-MS) (RengUGT13)
100	COc1cc([C@H]2OC[C@H]3[C@@H]2CO[C@@H]3c2ccc(O)c(OC)c2)ccc1O [structural formula (Ia)]	activity of transferring one molecule of glucose	activity of transferring one molecule of glucose
112	COc1cc([C@H]2OC[C@H]3[C@@H]2CO[C@H]3c2ccc(O)c(OC)c2)ccc1O [structural formula (Ib)]	–	–
128	COc1cc([C@H]2OC[C@H]3[C@@H]2CO[C@H]3c2ccc(OC)c(OC)c2)ccc1O [structural formula (Ic)]	–	–
